Where two headings read alike, the source gives them in different places.
Experiments:
[1] = test system: Human U937 monocytic cells; assay: U937 IFNγ ICAM1 FACS Assay; assay type: cell-based
Description: (§1) The activity of the compounds of the invention may additionally be characterized by assaying the effect of the 2,4-pyrimidinediamine compounds described herein on A549 lung epithelial cells and U937 cells. A549 lung epithelial cells and U937 cells up-regulate ICAM-1 (CD54) surface expression in response to a variety of different stimuli. Therefore, using ICAM-1 expression as readout, test compound effects on different signaling pathways can be assessed in the same cell type. Stimulation with IL-1β through the IL-1β receptor activates the TRAF6/NFκB pathway resulting in up-regulation of ICAM-1. IFNγ induces ICAM-1 up-regulation through activation of the JAK1/JAK2 pathway. The up-regulation of ICAM-1 can be quantified by flow cytometry across a compound dose curve and EC50 values are calculated. An exemplary assays of this type are described in greater detail in Examples 4 and 5.
(§2) Human U937 monocytic cells up-regulate ICAM-1 (CD54) surface expression in response to a variety of different stimuli. Therefore, using ICAM-1 expression as readout, compound effects on different signaling pathways can be assessed in the same cell type. IFNγ up-regulates ICAM-1 through activation of the JAK/Stat pathway. In this example, the up-regulation of ICAM-1 by IFNγ was assessed.
The U937 human monocytic cell line was obtained from ATCC of Rockville Md., catalog number CRL-1593.2, and cultured in RPM1-1640 medium containing 10% (v/v) FCS. U937 cells were grown in 10% RPMI. The cells were then plated at a concentration of 100,000 cells per 160 μL in 96 well flat bottom plates. The test compounds were then diluted as follows: 10 mM test compound was diluted 1:5 in DMSO (3 μL 10 mM test compound in 12 μL DMSO), followed by a 1:3 serial dilution of test compound in DMSO (6 μL test compound serially diluted into 12 μL DMSO to give 3-fold dilutions). Then 4 μL of test compound was transferred to 76 μL of 10% RPMI resulting in a 10× solution (100 μM test compound, 5% DMSO). For control wells, 4 μL of DMSO was diluted into 76 μL 10% RPMI.
The assay was performed in duplicate with 8 points (8 3-fold dilution concentrations from […]) and with 4 wells of DMSO only (control wells) under stimulated conditions and 4 wells of DMSO only under unstimulated conditions.
The diluted compound plate was mixed 2× using a multimek (Beckman Coulter of Brea, Calif.) and then 20 μL of the diluted compounds was transferred to the 96 well plate containing 160 μL of cells, which were then mixed again twice at low speeds. The cells and compounds were then pre-incubated for 30 minutes at 37° C. with 5% CO2.
The 10× stimulation mix was made by preparing a 100 ng/mL solution of human IFNγ in 10% RPMI. The cells and compound were then stimulated with 20 μL of IFNγ stimulation mix to give a final concentration of 10 ng/mL IFNγ, 10 μM test compound, and 0.5% DMSO. The cells were kept under conditions for stimulation for 18-24 hours at 37° C. with 5% CO2.
The cells were transferred to a 96 well round bottom plate for staining and then kept on ice for the duration of the staining procedure. Cells were spun down at 1000 rpm for 5 minutes at 4° C., following which the supernatant was removed. Following removal of the supernatant, 1 μL APC conjugated mouse anti-human ICAM-1 antibody was added per 100 μL FACS buffer. The cells were then incubated on ice in the dark for 30 minutes. Following incubation, 150 μL of FACS buffer was added and the cells were centrifuged at 1000 rpm for 5 minutes at 4° C., following which the supernatant was removed. After removal of the supernatant, 200 μL of FACS buffer was added and the cells were resuspended. After suspension, the cells were centrifuged at 1000 rpm for 5 min at 4° C. Supernatant was then removed prior to resuspension of the cells in 150 μL FACS buffer.
Detection was performed using a BD LSR I System Flow Cytometer, purchased from BD Biosciences of San Jose, Calif. […]

[2] = test system: A549 lung epithelial cells; assay: A549 Epithelial Line Stimulated with IFNγ (ICAM-1 surface expression, FACS); assay type: cell-based, human; conditions: IFNγ 75 ng/mL, 24 hours, ICAM-1 (CD54) surface expression by flow cytometry; read-out: Example 4 (IC50, A549 epithelial line stimulated with IFNγ)
Description: as §1
as §2, with “A549 lung epithelial” for “Human U937 monocytic”
The A549 lung epithelial carcinoma cell line originated from the American Type Culture Collection. Routine culturing was with F12K media (Mediatech Inc., Lenexa, Kans., Cat. No. 10-025-CV) with 10% fetal bovine serum, 100 I.U. penicillin and […] streptomycin (complete F12k media). Cells were incubated in a humidified atmosphere of 5% CO2 at 37° C. Prior to use in the assay, A549 cells were washed with PBS and trypsinized (Mediatech Inc., Cat. No. 25-052-CI) to lift the cells. The trypsin cell suspension was neutralized with complete F12K media and centrifuged to pellet the cells. The cell pellet was resuspended in complete F12K media at a concentration of 2.0×10^5/mL. Cells were seeded at 20,000 per well, 100 μL total volume, in a flat bottom tissue culture plate and allowed to adhere overnight.
On day two, A549 cells were pre-incubated with a 2,4-pyrimidinediamine test compound or DMSO (control) (Sigma-Aldrich, St. Louis, Mo., Catalog No. D2650) for 1 hour. The cells were then stimulated with IFNγ (75 ng/mL) (Peprotech Inc., Rocky Hill, N.J., Cat. No. 300-02) and allowed to incubate for 24 hours. The final test compound dose range was 30 μM to 14 nM in 200 μL F12K media containing 5% FBS, 0.3% DMSO.
On day three, the cell media was removed and the cells were washed with 200 μL PBS (phosphate buffered saline). Each well was trypsinized to dissociate the cells, then neutralized by addition of 200 μL complete F12K media. Cells were pelleted and stained with an APC conjugated mouse anti-human ICAM-1 (CD54) (BD Pharmingen, San Diego, Calif., Catalog #559771) antibody for 20 minutes at 4° C. Cells were washed with ice cold FACS buffer (PBS+2% FBS) and surface ICAM-1 expression was analyzed by flow cytometry. Detection was performed using a BD LSR I System Flow Cytometer, purchased from BD Biosciences of San Jose, Calif. Events were gated for live scatter and the geometric mean was calculated (Becton-Dickinson CellQuest software version 3.3, Franklin Lakes, N.J.). Geometric means were plotted against the compound concentration to generate a dose response curve.

[3] = Homo sapiens, U-937, IFNγ 10 ng/mL, 18-24 hours, ICAM-1 expression by flow cytometry, read-out: Example 5 (IC50, U937 IFNγ ICAM1 FACS assay)
[4] = IFNγ 10 ng/mL, 18-24 hours, ICAM-1 expression by flow cytometry, read-out: Example 5 (IC50, U937 IFNγ ICAM1 FACS assay)

SMILES	IC50 [2]	IC50 [1, 4]	other results
Cc1cnc(Nc2ccc(S(N)(=O)=O)cc2)nc1Nc1ccc2c(c1)C(NS(C)(=O)=O)CC2 (racemic) [VI-2, (+/−)-N2-(4-Aminosulfonylphenyl)-5-methyl-N4-[1-(methylsulfonyl)aminoindan-6-yl]-2,4-pyrimidinediamine]	–	–	IC50 [1, 3]: 2580 nM
N#CCOc1ccc(Nc2nc(Nc3cccc(CS(N)(=O)=O)c3)ncc2F)cc1 [Compound I-1, N2-[3-(Aminosulfonylmethylene)phenyl]-5-fluoro-N4-(4-cyanomethyleneoxyphenyl)-2,4-pyrimidinediamine]	3070 nM	554 nM	–
CCS(=O)(=O)NCc1ccc(Nc2nc(Nc3ccc(CS(=O)(=O)NC)cc3)ncc2C)cc1 [Compound I-2, N4-(4-ethylsulfonylaminomethyl)phenyl-5-methyl-N2-(4-methylaminosulfonylmethyl)phenyl-2,4-pyrimidinediamine]	1740 nM	133 nM	–
CNS(=O)(=O)Cc1ccc(Nc2ncc(F)c(Nc3ccc(CNS(=O)(=O)C4CC4)cc3)n2)cc1 [Compound I-8, N4-(4-cyclopropylsulfonylaminomethyl)phenyl-5-fluoro-N2-(4-methylaminosulfonylmethyl)phenyl-2,4-pyrimidinediamine]	3890 nM	347 nM	–
CCS(=O)(=O)NCc1ccc(Nc2nc(Nc3ccc(CS(=O)(=O)NC)cc3)ncc2F)cc1 [Compound I-10, N4-(4-ethylsulfonylaminomethyl)phenyl-5-fluoro-N2-(4-methylaminosulfonylmethyl)phenyl-2,4-pyrimidinediamine]	–	469 nM	–
Cc1cnc(Nc2ccc(CNS(=O)(=O)C3CC3)cc2)nc1Nc1ccc(CNS(=O)(=O)C2CC2)cc1 [II-1, N2,N4-bis(4-cyclopropylsulfonylaminomethyl)phenyl-5-methyl-2,4-pyrimidinediamine]	6230 nM	71.3 nM	–
Cc1cnc(Nc2ccc(CCNS(=O)(=O)C3CC3)cc2)nc1Nc1ccc(CCNS(=O)(=O)C2CC2)cc1 [II-2, N2,N4-bis[4-(2-cyclopropylsulfonylamino)ethyl]phenyl-5-methyl-2,4-pyrimidine diamine]	–	991 nM	–
COc1cc(Nc2nc(Nc3ccc4c(c3)CN(S(N)(=O)=O)CC4)ncc2F)ccc1Cl [III-1, N2-(2-Aminosulfonyl-1,2,3,4-tetrahydroisoquinolin-7-yl)-N4-(4-chloro-3-methoxyphenyl)-5-fluoro-2,4-pyrimidinediamine]	–	–	IC50 [1, 3]: 1080 nM
NS(=O)(=O)N1CCc2ccc(Nc3ncc(F)c(Nc4ccc(CNS(=O)(=O)C5CC5)cc4)n3)cc2C1 [III-2, N2-(2-Aminosulfonyl-1,2,3,4-tetrahydroisoquinolin-7-yl)-N4-[4-(cyclopropylsulfonylaminomethyl)phenyl]-5-fluoro-2,4-pyrimidinediamine]	–	–	IC50 [1, 3]: 164 nM
C#CCOc1ccc(Nc2nc(Nc3ccc4c(c3)CN(S(N)(=O)=O)CC4)ncc2F)cc1 [III-4, N2-(2-Aminosulfonyl-1,2,3,4-tetrahydroisoquinolin-7-yl)-N4-(4-(prop-2-ynyloxy)phenyl)-5-fluoro-2,4-pyrimidinediamine]	–	–	IC50 ([1]; Homo sapiens, U-937, read-out: Example 5 (IC50, U937 IFNγ ICAM1 FACS assay)): 462 nM
CC1(C)Oc2cc(Nc3nc(Nc4cccc(CS(N)(=O)=O)c4)ncc3F)cnc2NC1=O [IV-1, N2-[3-(Aminosulfonylmethylene)phenyl]-N4-[2,2-dimethyl-3-oxo-4H-pyrid[1,4]oxazin-7-yl]-5-fluoro-2,4-pyrimidinediamine]	–	18600 nM	–
CN1C(=O)C(C)(C)Oc2cc(Nc3nc(Nc4cccc(CS(N)(=O)=O)c4)ncc3F)cnc21 [IV-2, N2-[3-(Aminosulfonylmethylene)phenyl]-N4-[2,2-dimethyl-3-oxo-4-methyl-pyrid[1,4]oxazin-7-yl]-5-fluoro-2,4-pyrimidinediamine]	3500 nM	–	–

Source: patent publication US8729087B2, “Compositions and methods for inhibition of the JAK pathway” (Rigel Pharmaceuticals, Inc., priority 2006, dated 2014)
